Our source for the IC50 values is paper PMC3874090, “Synthesis and Evaluation of Anti-acetylcholinesterase Activity of 2-(2-(4-(2-Oxo-2-phenylethyl)piperazin-1-yl) ethyl)Isoindoline-1,3-dione Derivatives with Potential Anti-Alzheimer Effects” (Iranian Journal of Basic Medical Sciences, 2013).

Where two headings read alike, the source gives them in different places.

Broadly, the IC50 is the midpoint of a concentration-inhibition curve.

Assay [1] deals with T1, acetylcholinesterase from electric eel (Electrophorus electricus, UniProt O42275).
T1 construct: purchased Sigma-Aldrich (Steinheim, Germany) Type V-S
T1 sequence (O42275 24-633): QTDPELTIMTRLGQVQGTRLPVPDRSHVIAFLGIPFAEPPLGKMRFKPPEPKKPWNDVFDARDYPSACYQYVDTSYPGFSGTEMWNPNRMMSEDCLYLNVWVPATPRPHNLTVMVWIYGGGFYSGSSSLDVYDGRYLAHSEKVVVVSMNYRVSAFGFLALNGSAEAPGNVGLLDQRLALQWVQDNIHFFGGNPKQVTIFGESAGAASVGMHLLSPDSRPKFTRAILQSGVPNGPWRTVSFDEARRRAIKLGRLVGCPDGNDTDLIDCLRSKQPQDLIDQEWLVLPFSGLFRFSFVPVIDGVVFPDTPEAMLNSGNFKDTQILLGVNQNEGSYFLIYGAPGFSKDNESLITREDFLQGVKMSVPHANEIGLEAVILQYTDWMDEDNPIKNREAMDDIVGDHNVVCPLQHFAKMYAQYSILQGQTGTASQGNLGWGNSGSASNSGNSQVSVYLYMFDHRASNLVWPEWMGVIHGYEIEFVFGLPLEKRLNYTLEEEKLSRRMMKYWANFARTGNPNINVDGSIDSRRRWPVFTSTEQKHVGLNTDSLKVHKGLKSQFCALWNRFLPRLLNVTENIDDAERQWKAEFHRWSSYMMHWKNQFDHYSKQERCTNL
In words: biochemical. To be noted: Ellman test, electric eel AChE. As for the experimental part:
Lyophilized powder of acetylcholinesterase from electric eel source (AChE, E.C. 3.1.1.7, Type V-S, 1000 unit) was purchased from Sigma-Aldrich (Steinheim, Germany). 5,5'-Dithiobis-(2-nitrobenzoic acid, DTNB), potassium dihydrogen phosphate (KH2PO4), dipotassium hydrogen phosphate (K2HPO4), potassium hydroxide (KOH), sodium hydrogen carbonate (NaHCO3), and acetylthiocholine iodide were purchased from Fluka (Buchs, Switzerland).
According to the literature, the Ellman test was performed for assessment of the anticholinesterase activity of intended compounds in vitro. […] After rapid and immediate mixing the change of absorption was measured at 412 nm. The blank reading contained 3 ml buffer, 200 µl water, 100 µl DTNB and 20 µl substrate. The reaction rates were calculated, and the percent inhibition of test compounds was determined. Each concentration was analyzed in triplicate, and IC50 ± SD values were determined graphically from inhibition curves (log inhibitor concentration vs percent of inhibition) ([21], [22]).

The target in the next assay is acetylcholinesterase. Further details: method as in Sugimoto and collegues [20]. Conditions: in Figure 2; ref Sugimoto and collegues [20]; read-out: IC50 of lead compound; cited from earlier work.
The mark [2] stands for this setting: preincubated 15 min at 25 °C, pH 8.0, triplicate, read-out: IC50 (μM ± SD), acetylcholinesterase inhibitory activity.

As for `O=C(CN1CCN(CCN2C(=O)c3ccccc3C2=O)CC1)c1ccc(F)cc1` [Compound 4b, 2-(2-(4-(2-(4-Fluorophenyl)-2-oxoethyl)piperazin-1-yl)ethyl)isoindoline-1,3-dione], the IC50 in assay [1] (read-out: IC50, acetylcholinesterase inhibition) is 16.4 ± 1.07 µM. With `O=C(CN1CCN(CCN2C(=O)c3ccccc3C2=O)CC1)c1cccc(Cl)c1` [Compound 4c, 2-(2-(4-(2-(3-Chlorophenyl)-2-oxoethyl)piperazin-1-yl)ethyl)isoindoline-1,3-dione], the IC50 in assay [1] (setting [2]) stood at 28.2 ± 2.3 µM. On the same count and under the same terms, with `O=C(CN1CCN(CCN2C(=O)c3ccccc3C2=O)CC1)c1ccccc1` [Compound 4a, 2-(2-(4-(2-Oxo-2-phenylethyl)piperazin-1-yl)ethyl)isoindoline-1,3-dione] the figure was 45.6 ± 2.78 µM. For `O=C1c2ccccc2C(=O)N1CCC1CCN(Cc2ccccc2)CC1` [Compound A], the IC50 on acetylcholinesterase is 0.03 µM. `O=C(CN1CCN(CCN2C(=O)c3ccccc3C2=O)CC1)c1ccc(Cl)cc1Cl` [Compound 4d, 2-(2-(4-(2-(2,4-Dichlorophenyl)-2-oxoethyl)piperazin-1-yl)ethyl)isoindoline-1,3-dione]: the IC50 in assay [1] (setting [2]) came out at 63 ± 4.06 µM. Still for that read-out and setting: with `O=C(CN1CCN(CCN2C(=O)c3ccccc3C2=O)CC1)c1ccc2ccccc2c1` [Compound 4e, 2-(2-(4-(2-(Naphthalen-2-yl)-2-oxoethyl)piperazin-1-yl)ethyl)isoindoline-1,3-dione] the figure was 40.5 ± 2.47 µM.
